Data reported in paper PMC9963121, “Development of Combretastatin A-4 Analogues as Potential Anticancer Agents with Improved Aqueous Solubility” (Molecules, 2023).

What was measured:
L-02 normal liver cell = experiment: MTT cell growth inhibition assay, L-02 normal liver cells; assay type: cell-based; conditions: Homo sapiens, mean ± SD of three experiments
Source text: (§1) Initially, we designed and synthesised seven compounds—9a and 12a1–12a6—and evaluated the anticancer activity and aqueous solubility. We evaluated the cytotoxic effects of these stilbene nitrile analogues against a panel of four human cancer cell lines (HCT-116, BEL-7402, MCF-7 and AGS) and two human non-cancerous normal cell lines (L-02 and MCF-10A), using CA-4 as a control. The compounds were screened for aqueous solubility in 0.01 M PBS using a high throughput UV method. […] It is possible that the size of the nitrogen heterocycle had little effect on the activity of these compounds. […] The aqueous solubility of all the compounds 12a1–12a6 was higher than that of 9a, particularly that of 12a1 and 12a2 containing piperazine rings. […] Of the six compounds with improved aqueous solubility, 12a1 had the best activity.
(§2) All human cell lines were used in this study. AGS gastric cancer cell, BEL-7402 liver cancer cell, HCT-116 colorectal cancer cell, L-02 normal liver cell, MCF-7 breast cancer cell, and MCF-10A normal breast cell were initially purchased from American Type Culture Collection (ATCC, Manassas, VA, USA). RPMI-1640 media, DMEM and FBS, were provided by Gibco Company. The cells were maintained in DMEM or RPMI-1640, supplemented with 10% FBS, 100 IU/mL penicillin and […] streptomycin, and at 37 °C in a humidified atmosphere containing 5% CO2.
(§3) The experiment was carried out according to the method of reference.

[1] = system: BEL-7402 liver cancer cell; experiment: MTT cell growth inhibition assay, BEL-7402 liver cancer cells; assay type: cell-based; conditions: Homo sapiens, mean ± SD of three experiments, read-out: IC50 BEL-7402 Hepatoma Cells
Source text: as §1, §2, §3

AGS gastric cancer cell = experiment: MTT cell growth inhibition assay, AGS gastric cancer cells; assay type: cell-based; conditions: Homo sapiens, mean ± SD of three experiments
Source text: as §1, §2, §3

[2] = Compound stability in rat plasma, HPLC; assay type: in vitro ADME; conditions: 37 °C
Method: Blood was collected from SD rats (200–250 g, male and female, Animal Experimental Center of Yanbian University) into heparin tubes, and supernatant plasma was collected after centrifugation.
A certain amount of 9a and 12a1 were accurately weighed and mixed with rat plasma. After incubation at 37 ℃ for 0, 6, 12, 24 and 36 h, the plasma samples were treated with methanol and analyzed by HPLC to determine their stability in plasma.
A HITACHI Primaide HPLC liquid chromatography system was equipped and used for all analyses. Chromatographic separation was performed on a Welch Ultimate XB-C18 column (3.9 mm × 150 mm, 5 μm; Welch, China). The analytes were eluted using a gradient method with a flow rate of 1 mL/min. Mobile phase A was Ultra pure water, and mobile phase B was methanol according to the following gradient: (1) The gradient elution conditions of 9a: 0 to 8 min, 55% to 67% B; 8.1 to 15 min, 67% to 90% B; 15.1 to 25 min, 55% B. (2) The gradient elution conditions of 12a1: 0 to 9 min, 55% to 65% B; 9.1 to 12 min, 65% to 75% B; 12.1 to 15 min, 75% to 85% B; 15.1 to 20 min, 90% B; 20.1 to 30 min, 55% B. The injection volume was 3 μL. The column temperature was set at 40 °C. […]
1.6. Plasma stability assessment
Prepare plasma:blood was collected from SD rats (200-250g, male and female, Animal Experimental Center of Yanbian University) into heparin tubes, and supernatant plasma was collected after centrifugation.
A certain amount of 9a and 12a1 were accurately weighed and mixed with rat plasma.
After incubation at 37℃ for 0 h, 6 h, 12 h, 24 h and 36 h, the plasma samples were treated with methanol and analyzed by HPLC to determine their stability in plasma.
Analytical instrument and conditions:
A HITACHI Primaide HPLC liquid chromatography system equipped was used for all analyses. Chromatographic separation was performed on a Welch Ultimate XB-C18 column (3.9 mm × 150 mm, 5 μm; Welch, China). The analytes were eluted using a gradient method with a flow rate of 1 mL/min. Mobile phase A was Ultra pure water, and mobile phase B was methanol according to the following gradient: (1). The gradient elution conditions of 9a: 0 to 8 minutes, 55% to 67% B; 8.1 to 15 minutes, 67% to 90% B; 15.1 to 25 minutes, 55% B. (2). The gradient elution conditions of […]

IC50 [1]: 6.36 ± 0.61 µM
IC50 (AGS gastric cancer cell): 10.7 ± 0.52 µM
Decrease of HPLC peak area in rat plasma ([2]; within 36 h, UV 294 nm): ~22%
Plasma stability (in words) ([2]; rat plasma, 24 h): retained plasma stability over 24 h
Compound: COc1cc(/C(C#N)=C/c2ccc(NC(=O)CN3CCN(C)CC3)cc2)cc(OC)c1OC [12a1]
IC50 (L-02 normal liver cell): 32.7 ± 1.44 µM
